According to PMC10041525, “New Dual Inhibitors of Bacterial Topoisomerases with Broad-Spectrum Antibacterial Activity and In Vivo Efficacy against Vancomycin-Intermediate Staphylococcus aureus” (Journal of Medicinal Chemistry, 2023):
Like-named read-outs stand apart in the source and are kept apart here.

Assays:
DNA gyrase from E. coli = target: T1, DNA gyrase from E. coli (Escherichia coli, UniProt P0AES6); assay: supercoiling HTS plate assay; type: biochemical
T1 construct: purchased Inspiralis
Method in brief: (§1)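 E. coli gyrase tested by supercoiling and topo IV by relaxation in high-throughput plate format. IC50 from seven inhibitor concentrations; mean of three independent measurements.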

S. aureus ATCC 29213 = assay: MIC broth microdilution (CLSI); type: cell-based
Method in brief: (§2)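 Cation-adjusted Mueller Hinton broth 2 microdilution, 5 × 10^4 cells per well in 100 μL, three parallel replicates, plates bagged to limit evaporation; growth read as OD600 after incubation.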

[1] = tested on: Enterococcus faecalis ATCC 29212; assay: MIC broth microdilution (CLSI); type: cell-based, E. faecalis; settings: Enterococcus faecalis, ATCC29212
E. coli ATCC 25922 = assay: MIC broth microdilution (CLSI); type: cell-based; settings: Escherichia coli, ATCC25922
Method in brief: (§3)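 Using standard CLSI methodology, triplicate wells seeded at 5 × 10^4 cells in 100 μL cation-adjusted MHBII are incubated 18 h at 37 °C. The MIC corresponds to the drug concentration inhibiting culture growth as judged by OD600.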

E. faecium ATCC 700221 = assay: MIC broth microdilution (CLSI); type: cell-based
[2] = tested on: Enterobacter cloacae spp. cloacae ATCC 13047; assay: MIC broth microdilution (CLSI); type: cell-based; settings: Enterobacter cloacae, ATCC13047
Method in brief: as §3

K. pneumoniae ATCC 10031 = assay: MIC broth microdilution (CLSI); type: cell-based; settings: Klebsiella pneumoniae, ATCC10031
Method in brief: as §3

P. aeruginosa ATCC 27853 = assay: MIC broth microdilution (CLSI); type: cell-based; settings: Pseudomonas aeruginosa, ATCC27853
Method in brief: as §3

[3] = tested on: S. aureus (MRSA) ATCC 43300; assay: MIC broth microdilution (CLSI); type: cell-based
Method in brief: as §3

[4] = tested on: S. aureus (VISA) ATCC 700699; assay: MIC broth microdilution (CLSI); type: cell-based
Method in brief: as §3

topo IV from E. coli = target: T2, topo IV from E. coli (Escherichia coli, UniProt P20083); assay: relaxation HTS plate assay; type: biochemical
T2 construct: purchased Inspiralis
Method in brief: as §1

A. baumannii ATCC 17978 = assay: MIC broth microdilution (CLSI); type: cell-based; settings: Acinetobacter baumannii, ATCC17978
Method in brief: as §2

[5] = Staphylococcus aureus, ATCC29213
[6] = Enterococcus faecium, ATCC700221
[7] = Staphylococcus aureus, read-out: MIC [µg/mL](S. aureus MRSA ATCC4330)
[8] = read-out: MIC [µg/mL] (A. baumannii ATCC 17978)
[9] = Staphylococcus aureus, ATCC29213; read-out: MIC
[10] = Staphylococcus aureus, ATCC29213; read-out: MIC [µg/mL](S. aureus ATCC 29213)
[11] = Enterococcus faecium, ATCC700221, read-out: MIC
[12] = Staphylococcus aureus; read-out: MIC
[13] = Staphylococcus aureus; read-out: MIC [µg/mL](S. aureus MRSA ATCC4330)
[14] = Staphylococcus aureus, read-out: MIC

T2 sequence (P0AFI2 whole entry): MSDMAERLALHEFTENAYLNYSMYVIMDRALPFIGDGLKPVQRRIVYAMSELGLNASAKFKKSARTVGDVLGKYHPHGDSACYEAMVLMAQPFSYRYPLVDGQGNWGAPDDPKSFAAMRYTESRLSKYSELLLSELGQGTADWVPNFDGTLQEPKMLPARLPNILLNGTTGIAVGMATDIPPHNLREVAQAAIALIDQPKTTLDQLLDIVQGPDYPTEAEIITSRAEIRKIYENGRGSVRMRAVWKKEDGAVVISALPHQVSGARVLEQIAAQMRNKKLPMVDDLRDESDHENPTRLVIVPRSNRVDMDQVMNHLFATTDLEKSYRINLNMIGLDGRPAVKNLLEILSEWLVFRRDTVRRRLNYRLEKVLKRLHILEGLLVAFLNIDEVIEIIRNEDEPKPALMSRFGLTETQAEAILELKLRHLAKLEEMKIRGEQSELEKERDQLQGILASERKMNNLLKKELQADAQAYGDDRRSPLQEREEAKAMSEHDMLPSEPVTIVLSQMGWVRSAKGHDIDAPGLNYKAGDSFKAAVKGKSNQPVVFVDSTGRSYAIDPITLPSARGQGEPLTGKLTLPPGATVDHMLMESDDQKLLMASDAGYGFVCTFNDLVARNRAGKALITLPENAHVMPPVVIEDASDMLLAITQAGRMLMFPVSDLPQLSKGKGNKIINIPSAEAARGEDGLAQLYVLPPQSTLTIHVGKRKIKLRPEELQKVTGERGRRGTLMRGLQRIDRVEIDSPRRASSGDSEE
T2 sequence (P20083 whole entry): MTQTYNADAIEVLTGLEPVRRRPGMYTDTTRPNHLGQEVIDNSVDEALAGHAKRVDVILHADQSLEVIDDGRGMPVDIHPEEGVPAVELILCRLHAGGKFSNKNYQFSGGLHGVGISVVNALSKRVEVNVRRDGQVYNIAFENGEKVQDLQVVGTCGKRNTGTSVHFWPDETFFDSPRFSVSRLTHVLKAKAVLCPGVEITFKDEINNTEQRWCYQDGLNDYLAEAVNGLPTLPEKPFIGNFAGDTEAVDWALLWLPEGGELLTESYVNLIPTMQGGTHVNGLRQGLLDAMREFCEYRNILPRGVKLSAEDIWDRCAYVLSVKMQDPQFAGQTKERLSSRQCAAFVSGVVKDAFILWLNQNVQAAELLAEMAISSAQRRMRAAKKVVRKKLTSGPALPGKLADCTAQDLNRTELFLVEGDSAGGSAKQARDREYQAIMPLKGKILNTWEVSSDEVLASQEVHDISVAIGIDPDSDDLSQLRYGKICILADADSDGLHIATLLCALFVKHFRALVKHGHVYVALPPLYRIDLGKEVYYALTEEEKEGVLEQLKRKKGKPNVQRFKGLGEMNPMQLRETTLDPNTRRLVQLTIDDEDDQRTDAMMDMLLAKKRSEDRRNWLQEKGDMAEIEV

| SMILES | IC50 (DNA gyrase from E. coli; read-out: IC50) | IC50 (topo IV from E. coli; read-out: IC50) | MIC (A. baumannii ATCC 17978; read-out: MIC) | MIC (A. baumannii ATCC 17978; [8]) | MIC (S. aureus ATCC 29213; [9]) | MIC (S. aureus ATCC 29213; [10]) | MIC ([1]; read-out: MIC) | MIC (E. coli ATCC 25922; read-out: MIC) | MIC (E. faecium ATCC 700221; [11]) | MIC ([2]; read-out: MIC) | MIC (K. pneumoniae ATCC 10031; read-out: MIC) | MIC (P. aeruginosa ATCC 27853; read-out: MIC) | MIC [3, 12] | MIC [3, 13] | MIC [4, 14] | IC50 (DNA gyrase from E. coli; IC50 [nM] E. coli DNA gyrase) | other results |
| --- | --- | --- | --- | --- | --- | --- | --- | --- | --- | --- | --- | --- | --- | --- | --- | --- | --- |
| Cc1[nH]c(C(=O)Nc2nc3c(N4CCOCC4)cc(C(=O)O)cc3s2)c(Cl)c1Cl [7a, 2-(3,4-Dichloro-5-methyl-1H-pyrrole-2-carboxamido)-4-morpholinobenzo[d]thiazole-6-carboxylic Acid] | < 10 nM |  |  |  |  |  |  |  |  |  |  |  |  |  |  |  | MIC (S. aureus ATCC 29213; [5]): 0.25 µg/mL; MIC (S. aureus ATCC 29213; Staphylococcus aureus, ATCC29213, read-out: MIC [µg/mL](S. aureus ATCC 29213)): 0.25 µg/mL; MIC [1]: < 0.0312 µg/mL; MIC (E. coli ATCC 25922): 8 µg/mL; MIC (E. faecium ATCC 700221; [6]): < 0.0312 µg/mL; MIC [2]: > 64 µg/mL; MIC (K. pneumoniae ATCC 10031): 0.5 µg/mL; MIC (P. aeruginosa ATCC 27853): 16 µg/mL; MIC ([3]; Staphylococcus aureus): 0.0625 µg/mL; MIC [3, 7]: 0.25 µg/mL; MIC [4]: <0.03125 µg/mL; MIC ([4]; Staphylococcus aureus): < 0.0312 µg/mL |
| Cc1[nH]c(C(=O)Nc2nc3c(N4CCOCC4C)cc(C(=O)O)cc3s2)c(Cl)c1Cl (stereo not shown) [7b, 2-(3,4-Dichloro-5-methyl-1H-pyrrole-2-carboxamido)-4-(3-methylmorpholino)benzo[d]thiazole-6-carboxylic Acid] | < 10 nM | 78 ± 4 nM | 4 µg/mL | 4 µg/mL | 0.125 µg/mL | 0.125 µg/mL | < 0.0312 µg/mL | 8 µg/mL | < 0.0312 µg/mL | 32 µg/mL | 2 µg/mL | 8 µg/mL | < 0.0312 µg/mL | < 0.0312 µg/mL | < 0.0312 µg/mL |  |  |
| Cc1[nH]c(C(=O)Nc2nc3c(N4CCOC[C@H]4C)cc(C(=O)O)cc3s2)c(Cl)c1Cl [7c, (R)-2-(3,4-Dichloro-5-methyl-1H-pyrrole-2-carboxamido)-4-(3-methylmorpholino)benzo[d]thiazole-6-carboxylic Acid] | 17 ± 8 nM | 60 ± 36 nM | 8 µg/mL | 8 µg/mL | 0.0625 µg/mL | 0.0625 µg/mL | < 0.0312 µg/mL | 8 µg/mL | < 0.0312 µg/mL | > 64 µg/mL | 1 µg/mL | 8 µg/mL | 0.125 µg/mL | 0.125 µg/mL | 0.0625 µg/mL | 30 ± 9 nM |  |
| Cc1[nH]c(C(=O)Nc2nc3c(N4CCOC[C@@H]4C)cc(C(=O)O)cc3s2)c(Cl)c1Cl [7d, (S)-2-(3,4-Dichloro-5-methyl-1H-pyrrole-2-carboxamido)-4-(3-methylmorpholino)benzo[d]thiazole-6-carboxylic Acid] |  | 95 ± 4 nM | 8 µg/mL | 8 µg/mL | 0.125 µg/mL | 0.125 µg/mL | < 0.0312 µg/mL | 8 µg/mL | < 0.0312 µg/mL | > 64 µg/mL | 2 µg/mL | 8 µg/mL | 0.125 µg/mL | 0.125 µg/mL | 0.0625 µg/mL | 23 nM | IC50 (DNA gyrase from E. coli; IC50): 18 ± 7 nM |
| Cc1[nH]c(C(=O)Nc2nc3c(N4CCOC(C)C4)cc(C(=O)O)cc3s2)c(Cl)c1Cl (stereo not shown) [7e, 2-(3,4-Dichloro-5-methyl-1H-pyrrole-2-carboxamido)-4-(2-methylmorpholino)benzo[d]thiazole-6-carboxylic Acid] | < 10 nM | 91 ± 3 nM | 8 µg/mL | 8 µg/mL | 0.0625 µg/mL | 0.0625 µg/mL | < 0.0312 µg/mL | 8 µg/mL | < 0.0312 µg/mL | > 64 µg/mL | 2 µg/mL | 16 µg/mL | 0.0625 µg/mL | 0.0625 µg/mL | < 0.0312 µg/mL |  |  |
| Cc1[nH]c(C(=O)Nc2nc3c(N4CC(C)OC(C)C4)cc(C(=O)O)cc3s2)c(Cl)c1Cl (stereo not shown) [7f, 2-(3,4-Dichloro-5-methyl-1H-pyrrole-2-carboxamido)-4-(2,6-dimethylmorpholino)benzo[d]thiazole-6-carboxylic Acid] | < 10 nM | 82 ± 29 nM | 1 µg/mL | 1 µg/mL | < 0.0312 µg/mL | < 0.0312 µg/mL | < 0.0312 µg/mL | 8 µg/mL | < 0.0312 µg/mL | > 64 µg/mL | 8 µg/mL | 8 µg/mL | < 0.0312 µg/mL | < 0.0312 µg/mL | < 0.0312 µg/mL |  |  |
| Cc1[nH]c(C(=O)Nc2nc3c(N4C[C@H]5CC[C@@H](C4)O5)cc(C(=O)O)cc3s2)c(Cl)c1Cl [7g, 4-((1R,5S)-8-Oxa-3-azabicyclo[3.2.1]octan-3-yl)-2-(3,4-dichloro-5-methyl-1H-pyrrole-2-carboxamido)benzo[d]thiazole-6-carboxylic Acid] | < 10 nM | 16 ± 8 nM | 1 µg/mL | 1 µg/mL | < 0.0312 µg/mL | < 0.0312 µg/mL | < 0.0312 µg/mL | 2 µg/mL | < 0.0312 µg/mL | 16 µg/mL | 2 µg/mL | 2 µg/mL | < 0.0312 µg/mL | < 0.0312 µg/mL | < 0.0312 µg/mL |  |  |
| Cc1[nH]c(C(=O)Nc2nc3c(N4[C@@H]5CC[C@H]4COC5)cc(C(=O)O)cc3s2)c(Cl)c1Cl [7h, 4-((1R,5S)-3-Oxa-8-azabicyclo[3.2.1]octan-8-yl)-2-(3,4-dichloro-5-methyl-1H-pyrrole-2-carboxamido)benzo[d]thiazole-6-carboxylic Acid] | 13 ± 1 nM |  | 2 µg/mL | 2 µg/mL | < 0.0312 µg/mL | < 0.0312 µg/mL | < 0.0312 µg/mL | 4 µg/mL | < 0.0312 µg/mL | 16 µg/mL | 2 µg/mL | 4 µg/mL | < 0.0312 µg/mL | < 0.0312 µg/mL | 0.0625 µg/mL | 16 ± 6 nM |  |
| Cc1[nH]c(C(=O)Nc2nc3c(N4CCOC(C(F)(F)F)C4)cc(C(=O)O)cc3s2)c(Cl)c1Cl (stereo not shown) [7i, 2-(3,4-Dichloro-5-methyl-1H-pyrrole-2-carboxamido)-4-(2-(trifluoromethyl)morpholino)benzo[d]thiazole-6-carboxylic Acid] | < 10 nM |  |  |  |  |  |  |  |  |  |  |  |  |  |  |  | IC50 (topo IV from E. coli; IC50): 63 ± 1 nM; MIC (A. baumannii ATCC 17978): 4 µg/mL; MIC (S. aureus ATCC 29213; [5]): < 0.0312 µg/mL; MIC [1]: < 0.0312 µg/mL; MIC (E. coli ATCC 25922): 16 µg/mL; MIC (E. faecium ATCC 700221; [6]): < 0.0312 µg/mL; MIC [2]: > 64 µg/mL; MIC (K. pneumoniae ATCC 10031): 4 µg/mL; MIC (P. aeruginosa ATCC 27853): 4 µg/mL; MIC ([3]; Staphylococcus aureus): < 0.0312 µg/mL; MIC [3, 7]: < 0.0312 µg/mL; MIC ([4]; Staphylococcus aureus): < 0.0312 µg/mL |
| COCC1CCCN1c1cc(C(=O)O)cc2sc(NC(=O)c3[nH]c(C)c(Cl)c3Cl)nc12 (stereo not shown) [7n, 2-(3,4-Dichloro-5-methyl-1H-pyrrole-2-carboxamido)-4-(2-(methoxymethyl)pyrrolidin-1-yl)benzo[d]thiazole-6-carboxylic Acid] |  | 210 ± 7 nM | 8 µg/mL | 8 µg/mL | 0.0625 µg/mL | 0.0625 µg/mL | < 0.0312 µg/mL | 8 µg/mL | < 0.0312 µg/mL | > 64 µg/mL | 8 µg/mL | 8 µg/mL | 0.0625 µg/mL | 0.0625 µg/mL | 0.0625 µg/mL | 14 ± 6 nM |  |
| COC[C@@H]1CCCN1c1cc(C(=O)O)cc2sc(NC(=O)c3[nH]c(C)c(Cl)c3Cl)nc12 [7o, (S)-2-(3,4-Dichloro-5-methyl-1H-pyrrole-2-carboxamido)-4-(2-(methoxymethyl)pyrrolidin-1-yl)benzo[d]thiazole-6-carboxylic Acid] |  | 280 ± 14 nM | 16 µg/mL | 16 µg/mL | 0.0625 µg/mL | 0.0625 µg/mL | < 0.0312 µg/mL | 16 µg/mL | < 0.0312 µg/mL | > 64 µg/mL | 16 µg/mL | 16 µg/mL | 0.0625 µg/mL | 0.0625 µg/mL | 0.0625 µg/mL | 25 nM |  |
| Cc1[nH]c(C(=O)Nc2nc3c(N4CCOCC4)cc(C(=O)O)cc3s2)cc1F [16b, 2-(4-Fluoro-5-methyl-1H-pyrrole-2-carboxamido)-4-morpholinobenzo[d]thiazole-6-carboxylic Acid] |  | 120 nM |  | > 64 µg/mL | 64 µg/mL | 64 µg/mL | 16 µg/mL | > 64 µg/mL | 2 µg/mL |  |  |  | 32 µg/mL | 32 µg/mL | 8 µg/mL | 31 ± 6 nM | MIC (E. faecium ATCC 700221): 2 µg/mL |
